Data: ChEMBL document CHEMBL1201862, “PubChem BioAssay data set” (2004)
Values belong to the molecule of their own block, whether it stands above or below them. Calls of active or inactive are those of the source.

Assays:
[1] = Luminescence Cell-Based Dose Retest to Confirm Inhibitors of Cancer Stem Cells. [Related pubchem assays (depositor defined):AID2717, AID2721]; type: functional; conditions: Homo sapiens
Cytochrome P450 2D6 = Cytochrome P450 2D6 (Homo sapiens, UniProt P10635);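 note: CYP2D6 member of a cytochrome P450 panel assay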
Cytochrome P450 2D6, sequence (P10635 whole entry): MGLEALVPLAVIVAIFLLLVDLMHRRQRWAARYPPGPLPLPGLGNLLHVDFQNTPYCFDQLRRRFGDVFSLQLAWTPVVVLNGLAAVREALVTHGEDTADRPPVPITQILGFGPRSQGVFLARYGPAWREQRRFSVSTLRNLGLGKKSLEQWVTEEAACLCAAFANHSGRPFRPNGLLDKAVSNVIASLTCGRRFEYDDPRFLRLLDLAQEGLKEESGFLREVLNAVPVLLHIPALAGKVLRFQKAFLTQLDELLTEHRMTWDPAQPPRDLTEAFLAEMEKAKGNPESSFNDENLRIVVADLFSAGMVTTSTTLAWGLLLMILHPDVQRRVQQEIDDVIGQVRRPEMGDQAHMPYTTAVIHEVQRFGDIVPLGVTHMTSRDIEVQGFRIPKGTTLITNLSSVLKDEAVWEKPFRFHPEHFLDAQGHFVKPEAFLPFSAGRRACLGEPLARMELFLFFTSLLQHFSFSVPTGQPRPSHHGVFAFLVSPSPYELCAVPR

Cytochrome P450 3A4 [2] = target: T1, Cytochrome P450 3A4 (Homo sapiens, UniProt P08684);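 note: CYP3A4 tested as one member of a cytochrome P450 panel screen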
T1 sequence (P08684 whole entry): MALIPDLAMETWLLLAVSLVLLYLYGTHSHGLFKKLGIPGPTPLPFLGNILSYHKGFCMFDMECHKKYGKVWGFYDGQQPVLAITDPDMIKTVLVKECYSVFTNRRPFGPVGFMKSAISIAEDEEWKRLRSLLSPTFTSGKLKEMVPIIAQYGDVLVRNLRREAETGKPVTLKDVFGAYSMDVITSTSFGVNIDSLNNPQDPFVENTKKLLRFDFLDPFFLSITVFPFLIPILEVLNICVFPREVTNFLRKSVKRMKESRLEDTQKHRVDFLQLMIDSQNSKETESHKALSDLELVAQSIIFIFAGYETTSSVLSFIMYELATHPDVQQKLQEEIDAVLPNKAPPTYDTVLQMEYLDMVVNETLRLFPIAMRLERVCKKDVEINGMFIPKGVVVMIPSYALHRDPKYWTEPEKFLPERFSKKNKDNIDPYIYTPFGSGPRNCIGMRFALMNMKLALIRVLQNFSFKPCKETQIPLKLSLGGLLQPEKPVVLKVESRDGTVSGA

[3] = cytotoxicity in HMLE control line with eGFP shRNA, dose response, counter-screen for HMLE_sh_ECad selective toxicity project, cell-based, HMLE_sh_eGFP, luminescence (AID 463074); type: functional, Homo sapiens;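 note: HMLE human mammary epithelial cells expressing control shRNA against eGFP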
Bcl-2-related protein A1 = target: T2, Bcl-2-related protein A1 (Mus musculus, UniProt Q07440); type: functional;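 note: confirmatory dose–response counterscreen on Bfl-1, used to check hits from a UBC13 polyubiquitin inhibitor campaign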
T2 sequence (Q07440 whole entry): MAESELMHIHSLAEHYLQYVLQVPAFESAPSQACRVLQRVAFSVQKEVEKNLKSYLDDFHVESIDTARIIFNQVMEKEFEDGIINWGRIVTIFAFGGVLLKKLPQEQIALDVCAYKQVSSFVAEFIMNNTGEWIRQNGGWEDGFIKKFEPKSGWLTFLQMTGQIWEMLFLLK

[4] = target: Peroxisome proliferator-activated receptor gamma/Nuclear receptor coactivator 3 (Homo sapiens, UniProt P37231); experiment: TR-FRET dose response biochemical High Throughput Screening assay for agonists of the steroid receptor coactivator 3 (SRC-3) recruitment by the peroxisome proliferator-activated receptor gamma (PPAR gamma): non-selective agonists. [Related pubchem assays: 1301 (Confirmation screen.), 1048 (Primary screen.)]; type: functional
[5] = target: T3, Ubiquitin-conjugating enzyme E2 N (Homo sapiens, UniProt P61088); type: functional
T3 sequence (P61088 whole entry): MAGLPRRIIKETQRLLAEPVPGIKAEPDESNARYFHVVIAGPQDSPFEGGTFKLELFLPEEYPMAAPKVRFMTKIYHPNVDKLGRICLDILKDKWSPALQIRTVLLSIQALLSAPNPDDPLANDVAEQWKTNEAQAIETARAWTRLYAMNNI

[6] = target: T3, Ubiquitin-conjugating enzyme E2 N; type: functional; remark: listed apart in the source
[7] = target: Peroxisome proliferator-activated receptor gamma/Nuclear receptor coactivator 2 (Homo sapiens, UniProt P37231); experiment: (§1) TR-FRET dose response biochemical High Throughput Screening assay for agonists of the steroid receptor coactivator 2 (SRC-2) recruitment by the peroxisome proliferator-activated receptor gamma (PPAR gamma): non-selective agonists. [Related pubchem assays: 1297, 1032 ]; type: functional
[8] = target: Peroxisome proliferator-activated receptor gamma/Nuclear receptor coactivator 1 (Homo sapiens, UniProt P37231); experiment: as §1, with “1 (SRC-1)” for “2 (SRC-2)”, “assays (depositor defined):AID1300, AID1808, AID504735, AID631]” for “assays: 1297, 1032 ]”; type: protein assay
Peroxisome proliferator-activated receptor gamma/Nuclear receptor coactivator 1, sequence (P37231 whole entry): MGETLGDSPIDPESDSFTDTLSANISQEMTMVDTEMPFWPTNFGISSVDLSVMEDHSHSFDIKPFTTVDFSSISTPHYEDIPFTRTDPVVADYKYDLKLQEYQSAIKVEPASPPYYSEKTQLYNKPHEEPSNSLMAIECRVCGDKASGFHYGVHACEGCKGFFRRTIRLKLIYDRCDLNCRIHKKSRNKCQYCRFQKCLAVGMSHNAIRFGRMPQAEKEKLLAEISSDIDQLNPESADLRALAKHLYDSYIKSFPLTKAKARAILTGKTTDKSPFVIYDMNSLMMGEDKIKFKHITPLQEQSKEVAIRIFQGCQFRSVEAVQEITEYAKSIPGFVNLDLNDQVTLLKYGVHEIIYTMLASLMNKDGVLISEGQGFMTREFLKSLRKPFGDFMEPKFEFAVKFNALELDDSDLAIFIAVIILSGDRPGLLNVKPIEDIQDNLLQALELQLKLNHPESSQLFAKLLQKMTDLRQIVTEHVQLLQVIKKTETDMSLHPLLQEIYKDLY
Peroxisome proliferator-activated receptor gamma/Nuclear receptor coactivator 1, sequence (Q15788 whole entry, further chain): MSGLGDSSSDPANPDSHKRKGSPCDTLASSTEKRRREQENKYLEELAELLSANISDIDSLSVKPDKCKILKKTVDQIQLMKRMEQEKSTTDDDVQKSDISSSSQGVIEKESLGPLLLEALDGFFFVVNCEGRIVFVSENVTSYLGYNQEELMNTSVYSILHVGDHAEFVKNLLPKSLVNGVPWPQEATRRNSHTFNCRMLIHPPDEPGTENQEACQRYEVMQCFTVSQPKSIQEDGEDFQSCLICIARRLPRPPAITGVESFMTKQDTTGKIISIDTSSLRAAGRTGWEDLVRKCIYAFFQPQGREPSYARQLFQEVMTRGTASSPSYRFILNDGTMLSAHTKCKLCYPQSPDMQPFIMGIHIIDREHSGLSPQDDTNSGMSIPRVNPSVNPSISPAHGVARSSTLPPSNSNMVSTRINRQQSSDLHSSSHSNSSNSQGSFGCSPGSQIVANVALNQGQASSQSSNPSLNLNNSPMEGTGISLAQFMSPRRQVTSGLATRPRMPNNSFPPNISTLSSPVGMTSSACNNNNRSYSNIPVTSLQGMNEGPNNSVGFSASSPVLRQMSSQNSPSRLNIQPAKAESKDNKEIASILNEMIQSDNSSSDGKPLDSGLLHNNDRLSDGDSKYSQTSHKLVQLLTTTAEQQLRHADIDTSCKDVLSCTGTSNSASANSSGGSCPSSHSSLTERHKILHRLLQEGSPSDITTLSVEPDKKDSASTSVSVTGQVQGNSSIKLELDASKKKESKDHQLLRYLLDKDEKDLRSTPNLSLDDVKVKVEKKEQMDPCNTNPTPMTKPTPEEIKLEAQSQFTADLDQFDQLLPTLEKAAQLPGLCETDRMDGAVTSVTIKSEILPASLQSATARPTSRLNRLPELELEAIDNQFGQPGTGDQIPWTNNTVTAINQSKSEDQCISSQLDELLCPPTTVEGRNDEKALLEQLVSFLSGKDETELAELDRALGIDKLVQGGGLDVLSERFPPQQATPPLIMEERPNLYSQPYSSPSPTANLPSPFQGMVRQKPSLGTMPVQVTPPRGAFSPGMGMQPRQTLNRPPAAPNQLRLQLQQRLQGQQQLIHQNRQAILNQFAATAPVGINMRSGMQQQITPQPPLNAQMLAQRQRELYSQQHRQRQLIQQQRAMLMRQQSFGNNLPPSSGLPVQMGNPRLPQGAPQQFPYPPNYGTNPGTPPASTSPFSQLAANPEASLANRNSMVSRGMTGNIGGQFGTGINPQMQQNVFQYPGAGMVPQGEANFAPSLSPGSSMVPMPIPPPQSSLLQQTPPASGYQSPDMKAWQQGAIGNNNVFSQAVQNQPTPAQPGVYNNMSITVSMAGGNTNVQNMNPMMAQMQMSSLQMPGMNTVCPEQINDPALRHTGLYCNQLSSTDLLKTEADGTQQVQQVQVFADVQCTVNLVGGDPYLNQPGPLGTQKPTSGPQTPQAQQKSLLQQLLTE

Cytochrome P450 3A4 [9] = target: T1, Cytochrome P450 3A4; remark: listed apart in the source
[10] = target: T4, Mannose-6-phosphate isomerase (Homo sapiens, UniProt P34949); experiment: inhibitors of human PMI, primary screen, biochemical, fluorescence intensity, coupled assay (AID 1209)
T4 sequence (P34949 whole entry): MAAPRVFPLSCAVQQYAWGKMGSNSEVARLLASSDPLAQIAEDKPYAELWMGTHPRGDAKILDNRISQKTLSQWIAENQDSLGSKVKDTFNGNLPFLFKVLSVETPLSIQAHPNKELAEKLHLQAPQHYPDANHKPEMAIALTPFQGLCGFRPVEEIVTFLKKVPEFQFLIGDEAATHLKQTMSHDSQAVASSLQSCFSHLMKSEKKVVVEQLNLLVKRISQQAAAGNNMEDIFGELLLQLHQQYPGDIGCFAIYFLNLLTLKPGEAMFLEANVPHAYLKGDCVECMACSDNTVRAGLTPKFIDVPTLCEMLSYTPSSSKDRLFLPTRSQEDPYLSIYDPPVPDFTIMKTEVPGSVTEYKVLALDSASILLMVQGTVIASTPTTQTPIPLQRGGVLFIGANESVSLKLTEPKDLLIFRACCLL

Protein Wnt-3a = Protein Wnt-3a (Mus musculus, UniProt P27467); experiment: Wnt3a-driven reporter signaling inhibition, dose response, selectivity assay for Gli-SUFU antagonist project, Wnt-LIGHT cells, luminescence (AID 651570); type: functional; conditions: read-out: IC50_Mean;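 note: Wnt-LIGHT reporter cells stimulated with conditioned medium from Wnt3a-producing cells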
Protein Wnt-3a, sequence (P27467 whole entry): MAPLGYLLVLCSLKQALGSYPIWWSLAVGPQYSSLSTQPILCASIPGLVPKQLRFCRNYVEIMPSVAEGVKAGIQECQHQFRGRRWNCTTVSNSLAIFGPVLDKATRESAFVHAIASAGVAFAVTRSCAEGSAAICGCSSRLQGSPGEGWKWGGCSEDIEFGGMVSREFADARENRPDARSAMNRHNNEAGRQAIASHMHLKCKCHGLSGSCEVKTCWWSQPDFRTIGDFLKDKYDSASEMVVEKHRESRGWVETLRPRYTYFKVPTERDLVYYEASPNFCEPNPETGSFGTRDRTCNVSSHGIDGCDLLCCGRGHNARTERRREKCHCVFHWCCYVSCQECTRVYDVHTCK

[11] = cytotoxicity toward NIH3T3 fibroblasts, dose response, counter-screen, cell-based, ATP luminescence, mouse fibroblasts (AID 2010); type: functional;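 note: cells exposed to compound for about 90 hours before reading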
INS1 = experiment: beta cell apoptosis inhibitors, cytokine rescue, dose response, luminescence, retest (AID 449756); type: functional, cell-based; conditions: Rattus norvegicus;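 note: cell death triggered by IL-1 beta plus TNF-alpha plus IFN-gamma mixture; protective hits raise ATP signal compared with cytokine alone wells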
[12] = inhibitors of intracellular T. cruzi replication, confirmation, NIH3T3 host cells, beta-gal luminescence (AID 2044); type: functional, cell-based;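 note: intracellular parasites grown in NIH/3T3 mouse fibroblasts as host cells; luminescent beta-galactosidase reporter signal from transgenic T. cruzi replicating inside host cells; inhibitors lower the luminescence signal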
HeLa = experiment: HeLa cell cytotoxicity, dose response, cytotoxicity control for MITF activator project, CellTiter-Glo luminescence, cherry-pick samples (AID 540259); type: functional, cell-based; conditions: Homo sapiens
Cytochrome P450 2C9 = Cytochrome P450 2C9 (Homo sapiens, UniProt P11712)
Cytochrome P450 2C9, sequence (P11712 whole entry): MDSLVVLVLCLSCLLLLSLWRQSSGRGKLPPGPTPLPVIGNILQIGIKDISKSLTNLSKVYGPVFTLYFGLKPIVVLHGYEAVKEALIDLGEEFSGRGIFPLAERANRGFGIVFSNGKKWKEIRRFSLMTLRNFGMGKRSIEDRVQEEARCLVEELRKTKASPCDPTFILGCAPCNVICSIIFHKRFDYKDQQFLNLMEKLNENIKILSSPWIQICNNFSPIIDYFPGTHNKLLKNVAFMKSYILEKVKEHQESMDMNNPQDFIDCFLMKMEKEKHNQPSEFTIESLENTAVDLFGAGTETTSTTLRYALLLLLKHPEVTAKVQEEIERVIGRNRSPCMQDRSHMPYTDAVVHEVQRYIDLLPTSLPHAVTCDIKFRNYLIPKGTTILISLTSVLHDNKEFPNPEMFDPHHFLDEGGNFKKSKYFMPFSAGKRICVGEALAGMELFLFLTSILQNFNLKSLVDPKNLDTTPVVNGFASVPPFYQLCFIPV

Escherichia coli = experiment: microbe, parasite or virus in culture
[13] = target: T5, Rac GTPase-activating protein 1 (Homo sapiens, UniProt Q9H0H5); experiment: MgcRacGAP GTPase-activating activity inhibitors, confirmation, biochemical, ADP Hunter fluorescence, primary and confirmatory (AID 624330); type: functional
T5 sequence (Q9H0H5 whole entry): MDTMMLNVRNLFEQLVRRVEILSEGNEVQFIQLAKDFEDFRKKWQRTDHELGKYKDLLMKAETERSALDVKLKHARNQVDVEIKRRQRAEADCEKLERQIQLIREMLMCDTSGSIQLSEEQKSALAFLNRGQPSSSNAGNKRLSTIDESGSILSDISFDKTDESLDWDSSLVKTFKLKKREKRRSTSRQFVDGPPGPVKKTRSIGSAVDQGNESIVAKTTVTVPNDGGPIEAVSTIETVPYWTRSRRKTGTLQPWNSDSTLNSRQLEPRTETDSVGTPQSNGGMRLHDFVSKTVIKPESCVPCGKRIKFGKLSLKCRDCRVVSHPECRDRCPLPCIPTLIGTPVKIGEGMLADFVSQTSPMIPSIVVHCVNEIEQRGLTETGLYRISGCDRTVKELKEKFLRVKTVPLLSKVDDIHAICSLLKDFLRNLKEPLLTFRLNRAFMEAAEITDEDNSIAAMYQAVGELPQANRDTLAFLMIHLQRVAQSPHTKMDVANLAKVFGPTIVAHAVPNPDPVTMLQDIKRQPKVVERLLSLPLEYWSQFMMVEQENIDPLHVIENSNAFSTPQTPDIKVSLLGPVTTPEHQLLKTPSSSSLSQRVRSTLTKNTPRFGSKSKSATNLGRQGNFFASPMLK

SMILES: CCCCCOc1ccc(OC(=O)c2ccncc2)cc1
AC50 [1]: 7.57 µM (active) | AC50 (Cytochrome P450 2D6): 3.98 µM (inconclusive) | AC50 (Cytochrome P450 3A4 [2]): 25.1 µM (inconclusive) | AC50 [3]: 21.2 µM (active)

IC50 (Bcl-2-related protein A1): > 20 µM (inactive) | EC50 [4]: > 79.4 µM (not active) | IC50 [5]: 4.95 µM (active) | IC50 [6]: 5.57 µM (active) | EC50 [7]: > 79.4 µM (not active) | EC50 [8]: > 79.4 µM (inactive)
SMILES: CCn1c(=O)cc(SCC(=O)NCCCN2CCN(c3ccc(F)cc3)CC2)c2ccccc21

AC50 (Cytochrome P450 3A4 [9]): inconclusive
SMILES: Cn1cccc1C(=O)N1CCC2(CC1)CCN(c1ncccn1)CC2

AC50 (Cytochrome P450 3A4 [9]): inconclusive
SMILES: Cn1c(=O)c(-c2ccc(F)cc2)nc2cnc(N3CCOCC3)nc21

SMILES: CC[N+]1=C(C)C(C)(C)c2cc(C)ccc21
AC50 [1]: 24 µM (active) | IC50 [10]: > 50 µM (not active) | IC50 (Protein Wnt-3a): 0.892 µM (active) | EC50 [11]: > 60 µM (not active) | AC50 (INS1): 5.84 µM (active) | EC50 [12]: 1.49 µM (active) | AC50 [3]: 64.4 µM (active)

SMILES: NC(=O)CC(NC(=O)Cc1cccc2ccccc12)c1ccc(NC2CCCCC2)c([N+](=O)[O-])c1 (configuration not stated)
AC50 [1]: 5.79 µM (active) | AC50 [3]: 27.9 µM (active)

SMILES: Cc1ccc(C(=O)NCCc2ccc(F)cc2)s1
AC50 (HeLa): 43.2 µM (active)

AC50 (Cytochrome P450 2C9): inconclusive | AC50 (Cytochrome P450 3A4 [9]): inconclusive
SMILES: COC(=O)c1cc(C(=O)c2cccc(Cl)c2Cl)cn1C

SMILES: C(=N\Nc1ccccn1)/c1ccc(N2CCOCC2)cc1
AC50 (Escherichia coli): 62 µM (active) | IC50 [13]: 134 µM (active)

SMILES: CCc1ccc(O)c(-c2cc(C(=O)Nc3cccnc3)[nH]n2)c1
AC50 (HeLa): > 350 µM (inactive)
